Experimental findings from publication PMC7139875, “4-Pyridinio-1,4-Dihydropyridines as Calcium Ion Transport Modulators: Antagonist, Agonist, and Dual Action” (Oxidative Medicine and Cellular Longevity, 2020) are described below.

Entries after “also recorded” stand apart in the source; their conditions may differ.

In one data set the test system is [Ca2+]i in SH-SY5Y cells. Briefly: Ca2+ channel agonist activity, [Ca2+]i in Fluo-4 NW-loaded cells. The format is cell-based, human. Particulars: compound at 100 μM. The method, then:
(§1) The intracellular free Ca^2+ concentration [Ca^2+]i was measured in confluent monolayers of SH-SY5Y or A7R5 cells with the Ca^2+-sensitive fluorescent indicator Fluo-4 NW according to the instruction (Fluo-4 NW Calcium Assay Kit, Thermo Fisher Scientific, cat. No. F36206) (as referenced by Vilskersts et al..
For the investigation of Ca^2+ channel agonist activity of the DHP compound, 4 […] NW loaded SH-SY5Y or A7R5 cells were stimulated by the addition of compound 4 at the concentration range from 4 to 100 μM. The well-known calcium channel agonist Bay K8644 was used as the positive control (at the concentration range from 4 to 100 μM).
(§2) Changes in [Ca^2+]i were measured from the fluorescence emitted at 516 nm due to alternate excitation at 494 nm using the microplate reader Tecan Infinite M1000 (Austria). Intracellular Ca^2+ concentration was calculated from a standard curve with known amounts of free Ca^2+ using the standard Ca^2+-EGTA buffering system (Calcium Calibration Buffer Kit, cat. No.C-3008, Thermo Fisher Scientific).
(§3) In some experiments, […] NW loaded cells were washed and placed in normal Ca^2+-free HEPES-buffered replacement medium. In Ca^2+ restoration experiments, Ca^2+ was initially absent from the medium and was restored to 1 mM after 870 s of stimulation with compound 4.

The test system of data set [1] is carbachol-dependent mobilization of intracellular Ca2+ in SH-SY5Y cells. Briefly: Antagonist effect on carbachol-evoked intracellular Ca2+ mobilization (Fluo-4 NW). Format: cell-based, human. Particulars: SH-SY5Y cells; for IC50: Homo sapiens, read-out: Antagonist activity (IC50); for IC50 / Antagonist activity (IC50): 100 nM carbachol, 15 min preincubation. The method, then: as §1
The investigation of Ca^2+ channel blocking activity of DHP derivatives was based on the effect of DHP on carbachol evoked intracellular Ca^2+ mobilization in human neuroblastoma cells.
The cells were preincubated in the dark for 15 minutes with the tested compounds at concentrations ranging from 0.16 to 100 μM. The application of carbachol (100 nM) to […] NW loaded SH-SY5Y cells stimulated a classic “biphasic” response. The well-known 3rd generation calcium channel inhibitor amlodipine, which is also claimed to act as antioxidant and free radical scavenger, was used as the positive control (at the concentration range from 20 to 100 μM).
as §2
The IC50 values for the tested compounds were calculated using GraphPad Prism 4.0 software.
A general note: Calcium flux is commonly read through the fluorescence of an indicator in the cells.

Data set [2] in a line: Electrochemical oxidation potentials by cyclic voltammetry. The format is physicochemical. Particulars: glassy carbon electrode, vs Ag/Ag+, acetonitrile, 0.1 M TBABF4. The protocol:
The cyclic voltammetry experiments were carried out on the PARSTAT 2273 electrochemical system. A stationary glassy carbon disk electrode (d = 0.8 mm) served as the working electrode, while the counter electrode was a Pt wire. The oxidation potentials were measured relative to Ag/Ag^+ reference electrode. Acetonitrile was dried over P2O5 and distilled; the distillate was stored over CaH2 and redistilled just before use. Recrystallized tetrabutylammonium tetrafluoroborate (TBABF4) was used as a supporting electrolyte at 0.1 M concentration.

Data set [3] has as its system Ca2+ ion channel activity evoked by compound 4 in SH-SY5Y cells. Briefly: Inhibitor analysis of Ca2+ ion channel activity evoked by compound 4. Format: cell-based, human. Particulars: for inhibition at 100 µM / IC50: Homo sapiens; for inhibition at 100 µM: SH-SY5Y, 15 min preincubation; for IC50: 100 μM compound 4, SH-SY5Y cells, read-out: IC50 for inhibition of Ca2+ ion channel activity evoked by compound 4; for Effect on Ca2+ ion channel activity in the presence of compound 4: inhibitor at concentrations from 4 to 100 μM. The protocol:
The intracellular free Ca^2+ concentration [Ca^2+]i was measured in confluent monolayers of SH-SY5Y or […] cells with the Ca^2+-sensitive fluorescent indicator Fluo-4 NW according to the instruction (Fluo-4 NW Calcium Assay Kit, Thermo Fisher Scientific, cat. No. F36206) (as referenced by […] al.. Changes in [Ca^2+]i were measured from the fluorescence emitted at 516 nm due to alternate excitation at 494 nm using the microplate reader Tecan Infinite M1000 (Austria). Intracellular Ca^2+ concentration was calculated from a standard curve with known amounts of free Ca^2+ using the standard Ca^2+-EGTA buffering system (Calcium Calibration Buffer Kit, cat. No.C-3008, Thermo Fisher Scientific). […] The commercial calcium agonist compound Bay […] was used as the reference compound.

Data set [4] concerns Ca2+ response induced by compound 4 in SH-SY5Y cells (RyRs). The data set can be described thus: Role of RyRs in Ca2+ response induced by compound 4 (Ca2+-free medium). Format: cell-based, human. The method, then:
as §3
Where indicated, the cells were preincubated with inhibitors of Ca^2+ signaling proteins (amlodipine, nifedipine, nicardipine, mecamylamine, atropine, or 2-aminoethoxydiphenyl borate (2-APB) in dose 100 μM; procaine in dose 10 mM for 15 min, or with 5 μM thapsigargin for 10 min, or with 100 μM ruthenium red for 5 min), followed by stimulation with 100 μM of compound 4. The commercial calcium agonist compound Bay K8644 was used as the reference compound.

Where [5] appears, read: inhibitor 100 μM, 100 μM compound 4.
Setting [6] is: inhibitor 4 μM, 100 μM compound 4.
[7] abbreviates: inhibitor 20 μM, 100 μM compound 4.

`CCOC(=O)COC(=O)C1=C(C)NC(C)=C(C(=O)OCC(=O)OCC)C1c1ccc[n+](CC(=O)c2ccc([N+](=O)[O-])cc2)c1` [Compound 1]: the “Agonist activity (RFU, 100 μM)” value in data set [Ca2+]i in SH-SY5Y cells was “No effect”. Besides, the IC50 (as a rule, the concentration needed to halve the response being measured) in data set [1] was determined as 100 ± 12 µM.
Turning to `COC(=O)C1=C(C)NC(C)=C([N+](=O)[O-])C1c1ccccc1C(F)(F)F` (centres unmarked) [Bay K8644], in data set [Ca2+]i in SH-SY5Y cells, the “Agonist activity (RFU, 100 μM)” value is 1553 ± 115 RFU. In addition, the “Antagonist activity (IC50)” value in data set [1] was “No effect”.
With `CCOC(=O)COC(=O)C1=C(C)NC(C)=C(C(=O)OCC(=O)OCC)C1c1ccc[n+](CC(=O)c2ccc(OC)cc2)c1` [Compound 6], in data set [Ca2+]i in SH-SY5Y cells, the “Agonist activity (RFU, 100 μM)” value is “No effect”. The Electrooxidation potential in data set [2] came out at 1.78 V. Also, in data set [1], the IC50 came to 100 ± 9 µM and the “Antagonist activity relative to amlodipine (times lower)” value is recorded as “approximately nine times lower”.
For `COC(=O)C1=C(C)NC(C)=C(C(=O)OC)C1c1ccccc1[N+](=O)[O-]` [Nifedipine], in data set [3] (setting [5]), the inhibition (commonly the change of the read-out against control, counted positive when it falls) at 100 µM was found to be 42 ± 5% and the “Phase of the compound 4 response that is inhibited” value is on record as “inhibited both phases”. Also, the half-maximal inhibitory concentration (IC50) in data set [3] is > 100 µM. In data set [3] (setting [6]), the “Inhibition (%) of Ca2+ ion channel activity evoked by compound 4” value (“Inhibition (%)” below) stood at 7 ± 8%. Also, the “Inhibition (%)” value in data set [3] (setting [7]) is reported as 16 ± 10%.
For the compound `N.N.N.N.N.N.N.N.N.N.N.N.N.N.[Cl-].[Cl-].[Cl-].[Cl-].[Cl-].[Cl-].[O-2].[O-2].[Ru+3].[Ru+3].[Ru+4]` [Ruthenium, Ruthenium red], the “Ca2+ response induced by compound 4 after preincubation with inhibitor” value in data set [4] (inhibitor 100 μM) was “absent”.
As to `COC(=O)C1=C(C)NC(C)=C(C(=O)OCCN(C)Cc2ccccc2)C1c1cccc([N+](=O)[O-])c1` (centres unmarked) [Nicardipine], the inhibition at 100 µM in data set [3] (setting [5]) came to 33 ± 8%. Further, in data set [3], the IC50 was > 100 µM. Also, the “Inhibition (%)” value in data set [3] (setting [6]) is given as 10 ± 6%; in data set [3] (setting [7]), 11 ± 5%.
In the case of `CCOC(=O)COC(=O)C1=C(C)NC(C)=C(C(=O)OCC(=O)OCC)C1c1cc[n+](CC(=O)c2ccccc2)cc1` [Compound 5], in data set [Ca2+]i in SH-SY5Y cells, the “Agonist activity (RFU, 100 μM)” value is reported as “No effect”. The same compound showed an Electrooxidation potential in data set [2] of 1.70 V. Moreover, the “Antagonist activity (IC50)” value in data set [1] was “lacked any activity; also recorded: no activity; also recorded: No effect”.
As to `CCN(CC)CCOC(=O)c1ccc(N)cc1` [Procaine], the half-inhibitory concentration (IC50) in data set [4] (Homo sapiens, SH-SY5Y, Ca2+-free medium, read-out: IC50 for inhibition of Ca2+ response induced by compound 4) is 61 ± 9 µM. Moreover, testing at 6.25 µM in data set [4] (Homo sapiens, SH-SY5Y, inhibitor 6.25 μM, Ca2+-free medium) gave an inhibition of 0%. For the same compound, 12.5 µM produced 5 ± 9% inhibition in data set [4] (Homo sapiens, SH-SY5Y, inhibitor 12.5 μM, Ca2+-free medium). The inhibition at 25 µM in data set [4] (Homo sapiens, SH-SY5Y, inhibitor 25 μM, Ca2+-free medium) turned out to be 0%. This compound also yielded an inhibition at 50 µM in data set [4] (Homo sapiens, SH-SY5Y, inhibitor 50 μM, Ca2+-free medium) of 18 ± 6%. The compound also came in with an inhibition at 100 µM in data set [4] (Homo sapiens, SH-SY5Y, inhibitor 100 μM, Ca2+-free medium) of 98 ± 5%. The “Ca2+ response induced by compound 4 after preincubation with inhibitor” value in data set [4] (inhibitor 10 mM) is recorded as “completely blocked; also recorded: absent”.
For `CN1[C@@H]2CC[C@H]1C[C@@H](OC(=O)C(CO)c1ccccc1)C2` (some centres unmarked) [Atropine], the “Effect on Ca2+ ion channel activity in the presence of compound 4” value in data set [3] is reported as “no effect”.
As for `CNC1(C)C2CCC(C2)C1(C)C` (centres unmarked) [Mecamylamine], in data set [3], the “Effect on Ca2+ ion channel activity in the presence of compound 4” value is given as “no effect”.
Turning to `CCOC(=O)COC(=O)C1=C(C)NC(C)=C(C(=O)OCC(=O)OCC)C1c1ccc[n+](CC(=O)c2ccccc2)c1` [Compound 3], in data set [Ca2+]i in SH-SY5Y cells, the “Agonist activity (RFU, 100 μM)” value is “No effect”. The compound also gave an Electrooxidation potential in data set [2] of 1.68 V. Also, the half-maximal inhibitory concentration (IC50) in data set [1] came out at 3.6 ± 0.3 µM.
Turning to `C/C=C(/C)C(=O)O[C@H]1C(C)=C2[C@H]([C@@H]1OC(=O)CCCCCCC)[C@@](C)(OC(C)=O)C[C@H](OC(=O)CCC)[C@@]1(O)[C@H]2OC(=O)[C@@]1(C)O` [thapsigargin], the “Influence on Ca2+ ion increase induced by compound 4” value in data set [3] (5 μM inhibitor, Ca2+-free medium) is “no influence”.
`NCCOB(c1ccccc1)c1ccccc1` [Compound 2-APB, 2-aminoethoxydiphenyl borate]: the “Effect on Ca2+ channel response induced by compound 4” value in data set [3] (pretreatment for 15 min) was “no effect”.
For the compound `CCOC(=O)CC[n+]1cccc(C2C(C(=O)OCC(=O)OCC)=C(C)NC(C)=C2C(=O)OCC(=O)OCC)c1` [Compound 2], the “Agonist activity (RFU, 100 μM)” value in data set [Ca2+]i in SH-SY5Y cells is on record as “No effect”. In addition, the Electrooxidation potential in data set [2] amounted to 1.69 V. Also, the “Antagonist activity (IC50)” value in data set [1] is recorded as “lacked any activity; also recorded: no activity; also recorded: No effect”.
